Starred links: 1 amine or outer side, 2 acyl side, 3 side chain; linkers in the order of their positions; H or OH if unused. Positions of bridges follow the written chain, without caps; N, C: chain ends. Non-standard residues stand in square brackets, D forms with d. Residues, ends and D or L forms follow the SMILES beside them. *: point of attachment. hPhe(3-Cl-4-CF3) = N[C@@H](CCc1ccc(C(F)(F)F)c(Cl)c1)C(=O)O; hPhe(4-CF3) = N[C@@H](CCc1ccc(C(F)(F)F)cc1)C(=O)O; Phe(2-CF3) = N[C@@H](Cc1ccccc1C(F)(F)F)C(=O)O; NMePhe(4-Cl) = CN[C@@H](Cc1ccc(Cl)cc1)C(=O)O; NMePhe(4-Me) = CN[C@@H](Cc1ccc(C)cc1)C(=O)O; NMePhe(2-Cl) = CN[C@@H](Cc1ccccc1Cl)C(=O)O; NMePhe(4-F) = CN[C@@H](Cc1ccc(F)cc1)C(=O)O; NMedβ3hAla = C[C@H](CC(=O)[*:2])N(C)[*:1]; NMePhe(2-F) = CN[C@@H](Cc1ccccc1F)C(=O)O; Phe(3-Cl) = N[C@@H](Cc1cccc(Cl)c1)C(=O)O; NMeGly(cPent) = CN[C@H](C(=O)O)C1CCCC1; Phe(3-I) = N[C@@H](Cc1cccc(I)c1)C(=O)O; Phe(3-Me) = Cc1cccc(C[C@H](N)C(=O)O)c1; NMeCha = CN[C@@H](CC1CCCCC1)C(=O)O; NMeF = CN[C@@H](Cc1ccccc1)C(=O)O; NMeI = CC[C@H](C)[C@H](NC)C(=O)O; N(CH2CH2)2CF2 = FC1(F)CCN(*)CC1; NMeD = CN[C@@H](CC(=O)O)C(=O)O; NMeL = CN[C@@H](CC(C)C)C(=O)O; NMeV = CN[C@H](C(=O)O)C(C)C; d(β3hA) = C[C@@H](N)CC(=O)O; NMeS = CN[C@@H](CO)C(=O)O; NMeA = CN[C@@H](C)C(=O)O; NMeAib = CNC(C)(C)C(=O)O; Piperidide = C1CCN(*)CC1; Pyrrolidide = C1CCN(*)C1; dNMeA = CN[C@H](C)C(=O)O; Ac5c = NC1(C(=O)O)CCCC1; Aze = O=C(O)[C@@H]1CCN1; Aib = CC(C)(N)C(=O)O; Isopentyl = CC(C)CC*; Sar = CNCC(=O)O
target: T1, Kras and SOS1 (biotin-tagged human Kras loaded with GDP, His-tagged human SOS1) (Homo sapiens, UniProt P01116, G12D); test: Protein-protein interaction inhibition between Kras and SOS1 (KrasGl2D-SOS PPI) using AlphaScreen; format: binding; details: AlphaScreen; biotin-tagged human Kras loaded with GDP, His-tagged human SOS1; read-out: KRAS G12D-SOS PPI IC50
T1 construct: made in house; host or cells: E. coli (stated for Kras only)
T1 sequence (P01116 1-188 isoform P01116-2 G12D): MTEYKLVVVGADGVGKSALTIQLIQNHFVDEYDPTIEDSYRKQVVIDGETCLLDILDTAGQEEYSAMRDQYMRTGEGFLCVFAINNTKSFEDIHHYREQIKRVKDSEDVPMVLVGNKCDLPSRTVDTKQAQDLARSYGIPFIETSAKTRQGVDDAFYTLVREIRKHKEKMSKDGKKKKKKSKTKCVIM
Procedure, shortened: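 Binding between SOS1 and Kras is detected as bead-proximity luminescence: illuminate Ni-conjugated donors (680 nm), collect 520-620 nm emission from streptavidin-conjugated acceptors; Kras carries biotin and GDP loaded after purification, SOS1 carries a His tag.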

SMILES | IC50
CC[C@H](C)[C@@H]1NC(=O)[C@H](CC(C)C)N(C)C(=O)C[C@@H](C(=O)N2CCCCC2)N(C)C(=O)[C@H](CC(C)C)NC(=O)C(C)(C)N(C)C(=O)[C@H](Cc2ccccc2C(F)(F)F)NC(=O)[C@H](Cc2cccc(I)c2)NC(=O)CN(C)C(=O)[C@H](Cc2ccc(C)cc2)N(C)C(=O)CN(C)C(=O)CN(C)C1=O [Compound 1127] ([NMeL]I[Sar][Sar][NMePhe(4-Me)][Sar][Phe(3-I)][Phe(2-CF3)][NMeAib]L[NMeD]-Piperidide; lactam N-11) | 0.26 µM
CC[C@H](C)[C@@H]1NC(=O)[C@H](CC(C)C)N(C)C(=O)C[C@@H](C)NC(=O)[C@H](CC(C)C)N(C)C(=O)C(C)(C)NC(=O)[C@@H]2CCCN2C(=O)[C@H](CCc2ccc(C(F)(F)F)cc2)NC(=O)CN(C)C(=O)[C@H](Cc2ccc(Cl)cc2)N(C)C(=O)CN(C)C(=O)CN(C)C1=O [Compound 1013] (cyclo([Aib][NMeL][d(β3hA)][NMeL]I[Sar][Sar][NMePhe(4-Cl)][Sar][hPhe(4-CF3)]P)) | 0.031 µM
CC[C@H](C)[C@@H]1NC(=O)[C@H](C)N(C)C(=O)C[C@@H](C(=O)N2CCCC2)NC(=O)[C@H](CC(C)C)N(C)C(=O)[C@H](Cc2ccccc2)N(C)C(=O)[C@H](CC(C)C)NC(=O)[C@H](CCc2ccc(C(F)(F)F)cc2)NC(=O)CN(C)C(=O)[C@H](Cc2ccc(Cl)cc2)N(C)C(=O)CN(C)C(=O)CN(C)C1=O [Compound 50] ([NMeA]I[Sar][Sar][NMePhe(4-Cl)][Sar][hPhe(4-CF3)]L[NMeF][NMeL]D-Pyrrolidide; lactam N-11) | 0.028 µM
CC[C@H](C)[C@@H]1NC(=O)[C@H](C)N(C)C(=O)C[C@@H](C(=O)N2CCCC2)N(C)C(=O)[C@H](C(C)C)N(C)C(=O)C(C)(C)NC(=O)[C@H](Cc2ccccc2Cl)N(C)C(=O)[C@H](CCc2ccc(C(F)(F)F)c(Cl)c2)NC(=O)CN(C)C(=O)[C@H](CC2CCCCC2)N(C)C(=O)CN(C)C(=O)CN(C)C1=O [Compound 426] ([NMeA]I[Sar][Sar][NMeCha][Sar][hPhe(3-Cl-4-CF3)][NMePhe(2-Cl)][Aib][NMeV][NMeD]-Pyrrolidide; lactam N-11) | 0.0087 µM
CC[C@H](C)[C@@H]1NC(=O)[C@H](CC(C)C)N(C)C(=O)C[C@@H](C(=O)N2CCCCC2)N(C)C(=O)[C@H](CC(C)C)NC(=O)C(C)(C)N(C)C(=O)[C@H](Cc2ccc(OC)cc2)NC(=O)[C@H](Cc2cccc(I)c2)NC(=O)CN(C)C(=O)[C@H](Cc2ccc(C)cc2)N(C)C(=O)[C@@H]2CCN2C(=O)[C@H](C)N(C)C1=O [Compound 703] ([NMeL]I[NMeA][Aze][NMePhe(4-Me)][Sar][Phe(3-I)]Y(Me)[NMeAib]L[NMeD]-Piperidide; lactam N-11) | 0.0085 µM
CC[C@H](C)[C@@H]1NC(=O)[C@H](C)N(C)C(=O)C[C@@H](C(=O)N2CCCC2)NC(=O)[C@H](C(C)C)N(C)C(=O)[C@H](Cc2ccccc2)N(C)C(=O)[C@H](Cc2cccc(C)c2)NC(=O)[C@H](Cc2cccc(Cl)c2)NC(=O)CN(C)C(=O)[C@H](Cc2ccc(Cl)cc2)N(C)C(=O)CN(C)C(=O)CN(C)C1=O [Compound 609] ([NMeA]I[Sar][Sar][NMePhe(4-Cl)][Sar][Phe(3-Cl)][Phe(3-Me)][NMeF][NMeV]D-Pyrrolidide; lactam N-11) | 0.11 µM
CC[C@H](C)[C@@H]1NC(=O)[C@H](C)N(C)C(=O)C[C@@H](C)NC(=O)[C@H](C2CCCC2)N(C)C(=O)C2(CCCC2)NC(=O)[C@@H]2CCCN2C(=O)[C@H](CCc2ccc(C(F)(F)F)c(Cl)c2)NC(=O)CN(C)C(=O)[C@H](Cc2ccc(F)cc2)N(C)C(=O)[C@@H]2CCCN2C(=O)CN(C)C1=O [Compound 146] (cyclo([Ac5c][NMeGly(cPent)][d(β3hA)][NMeA]I[Sar]P[NMePhe(4-F)][Sar][hPhe(3-Cl-4-CF3)]P)) | 0.004 µM
CC[C@H](C)[C@@H]1NC(=O)[C@H](CC(C)C)N(C)C(=O)C[C@@H](C)N(C)C(=O)[C@H](C2CCCC2)N(C)C(=O)C2(CCCC2)NC(=O)[C@H](CC(=O)N2CCC(F)(F)CC2)N(C)C(=O)[C@H](CCc2ccc(C(F)(F)F)c(Cl)c2)NC(=O)CN(C)C(=O)[C@H](CC2CCCCC2)N(C)C(=O)[C@@H]2CCN2C(=O)[C@H](C)N(C)C1=O [Compound 777] (cyclo([Ac5c][NMeGly(cPent)][NMedβ3hAla][NMeL]I[NMeA][Aze][NMeCha][Sar][hPhe(3-Cl-4-CF3)][NMeD](N(CH2CH2)2CF2))) | 0.33 µM
CC[C@H](C)[C@@H]1NC(=O)[C@H](CC2CCCCC2)N(C)C(=O)C[C@@H](C)NC(=O)[C@H](CC(C)C)N(C)C(=O)C2(CCCC2)NC(=O)[C@@H]2CCCN2C(=O)[C@H](CCc2ccc(C(F)(F)F)cc2)NC(=O)CN(C)C(=O)[C@H](Cc2ccc(Cl)cc2)N(C)C(=O)CN(C)C(=O)CN(C)C1=O [Compound 578] (cyclo([Ac5c][NMeL][d(β3hA)][NMeCha]I[Sar][Sar][NMePhe(4-Cl)][Sar][hPhe(4-CF3)]P)) | 0.12 µM
CC[C@H](C)[C@@H]1NC(=O)[C@H](CC(C)C)N(C)C(=O)C[C@@H](C(=O)N(C)C)N(C)C(=O)[C@H]([C@@H](C)CC)N(C)C(=O)C2(CCCC2)NC(=O)[C@H](COCCC(C)C)N(C)C(=O)[C@H](CCc2ccc(C(F)(F)F)c(Cl)c2)NC(=O)CN(C)C(=O)[C@H](Cc2ccc(C)cc2)N(C)C(=O)[C@@H]2CCN2C(=O)[C@H](C)N(C)C1=O [Compound 27, (3S,6S,9S,13S,16S,22S,25S,31S,34S)-25-[2-[3-chloro-4-(trifluoromethyl)phenyl]ethyl]-9-isobutyl-22-(isopentyloxymethyl)-N,N,3,4,10,14,17,23,29,32-decamethyl-6,16-bis[(1S)-1-methylpropyl]-2,5,8,11,15,18,21,24,27,30,33-undecaoxo-31-(p-tolylmethyl)spiro[1,4,7,10,14,17,20,23,26,29,32-undecazabicyclo[32.2.0]hexatriacontane-19,1′-cyclopentane]-13-carboxamide] ([NMeL]I[NMeA][Aze][NMePhe(4-Me)][Sar][hPhe(3-Cl-4-CF3)][NMeS](Isopentyl)[Ac5c][NMeI][NMeD]-NMe2; lactam N-11) | 0.0033 µM
CC[C@H](C)[C@@H]1NC(=O)[C@H](CC(C)C)N(C)C(=O)C[C@@H](C(=O)N(C)C)N(C)C(=O)[C@H](C2CCCC2)N(C)C(=O)C2(CCCC2)NC(=O)[C@H](Cc2ccccc2F)N(C)C(=O)[C@H](CCc2ccc(C(F)(F)F)c(Cl)c2)NC(=O)CN(C)C(=O)[C@H](CC2CCCCC2)N(C)C(=O)[C@@H]2CCN2C(=O)[C@H](C)N(C)C1=O [Compound 43] ([NMeL]I[NMeA][Aze][NMeCha][Sar][hPhe(3-Cl-4-CF3)][NMePhe(2-F)][Ac5c][NMeGly(cPent)][NMeD]-NMe2; lactam N-11) | 0.031 µM
CC[C@H](C)[C@@H]1NC(=O)[C@H](C)N(C)C(=O)C[C@@H](C(=O)N2CCCCC2)N(C)C(=O)[C@H](C(C)C)N(C)C(=O)C2(CCCC2)NC(=O)[C@@H]2CCCN2C(=O)[C@H](CCc2ccc(C(F)(F)F)c(Cl)c2)NC(=O)[C@@H](C)N(C)C(=O)[C@H](Cc2ccc(F)cc2)N(C)C(=O)[C@@H]2CCCN2C(=O)CN(C)C1=O [Compound 1853] ([NMeA]I[Sar]P[NMePhe(4-F)][dNMeA][hPhe(3-Cl-4-CF3)]P[Ac5c][NMeV][NMeD]-Piperidide; lactam N-11) | 0.0089 µM
